From patent publication US20100168085A1, “Dopamine and agonists and antagonists thereof for modulation of suppressive activity of CD4+CD25+ regulatory T cells” (YESA RESEARCH AND DEVELOPMENT CO. LTD. at the Weizmann …, priority 2003, published 2010)

Legend:
[1] = test system: D5-R transcripts in Treg and Teff; details: 2 h with 10^−5 M
Description: (§1) (xx) Polymerase chain reaction (PCR). Total RNA was purified with the RNeasy Mini Kit (Qiagen, Germantown, Md.) and transcribed into cDNA using poly dT primers. For PCR the following primers were used: […]
(§2) This was done by assaying the expression of the dopamine type-1 receptors, D1-R and D5-R, in Treg and Teff, in the absence and in the presence of dopamine (incubation of the cells for 2 h with 10^−5 M dopamine).

[2] = test system: D1-R transcripts in Treg and Teff; details: 2 h with 10^−5 M
Description: as §1, §2

[3] = test system: IL-2 production by Treg and Teff; details: media conditioned 48 h, without mrIL-2
Description: (x) Enzyme-linked immunosorbent assay. Treg or Teff (0.5×10^6 cells/ml) were cultured for 48 h in the presence of anti-CD3 and anti-CD28. After 48 h the cells were centrifuged and their supernatants were collected and sampled. Concentrations of IL-2 in the samples were determined by the use of sandwich enzyme-linked immunosorbent assay (ELISA) kits (R&D Systems, Minneapolis, Minn.). For detection of secreted IL-10 cells were centrifuged every 24 h and replaced with a fresh medium. Supernatants obtained from cells after 24, 48 and 72 h in culture were subjected to ELISA kit (Diaclone Research, Fleming, France). The plates were developed using a 3,3′,5,5′-tetramethyl-benzidine liquid substrate system (Sigma, St. Louis, Mo.). The reaction was stopped by adding 1M H3PO4. Results for each experiment were calculated as the amount of secreted cytokine per 1 ml of sample, after subtraction of the background levels of the medium.
It should be noted that activation of both T cell populations was carried out in the absence of mrIL-2.

[4] = test system: suppressive activity of CD4+CD25+ regulatory T cells (Treg) on Teff proliferation; assay: Inhibition assay (co-culturing of Teff with Treg), [3H]-thymidine incorporation; assay type: cell-based, mouse; details: for Inhibitory effect on Treg activity: freshly isolated (nonactivated) Treg; for Effect on Treg suppressive activity: activated Treg
Description: (xvi) Activation of CD4^+CD25^+ regulatory T cells. Purified regulatory T cells (Treg; 0.5×10^6 cells/mL) were activated in RPMI medium supplemented with L-glutamine (2 mM), 2-mercaptoethanol (5×10^−5 M), sodium pyruvate (1 mM), penicillin (100 IU/mL), streptomycin (100 μg/mL), nonessential amino acids (1 mL/100 mL), and autologous serum 2% (vol/vol) in the presence of mrIL-2 (5 ng/mL) and soluble anti-CD3 antibodies (1 ng/mL). Irradiated (2500 rad) splenocytes (1.5×10^6 cells/mL) were added to the culture. Cells were activated for 24 or 96 h. In some of the 96-h experiments, fresh dopamine was added to the culture every 24 h during activation.
(xvii) Inhibition assay (co-culturing of Teff with Treg). Naïve effector T cells (Teff; 50×10^3 cells/well) were co-cultured with decreasing numbers of activated Treg for 72 h in 96-well flat-bottomed plates in the presence of irradiated splenocytes (10^6/mL) supplemented with anti-CD3 antibodies. [^3H]-thymidine (1 μCi) was added for the last 16 h of culture. After the cells were harvested, their [^3H]-thymidine content was analyzed by the use of […].
In this experiment, we examined whether dopamine acts on Treg and alters their suppressive effect on Teff. Suppression of proliferation of Teff, assayed by [^3H]thymidine incorporation, was used as a measure of suppressive effect of Treg (Thornton and Shevach, 1998).
Shevach, 1998, 2000). Inhibition of Treg proliferation, assayed by [^3H]thymidine incorporation, can therefore be taken as a measure of the suppressive effect. We examined the ability of major neurotransmitters and neuropeptides (dopamine, norepinephrine, substance P, and serotonin) to alleviate the Treg-induced suppression of Teff in vitro. Each compound was tested at several concentrations. […] After incubating the activated Treg for 2 h with a neurotransmitter or a neuropeptide, we washed the cells and then co-cultured them with Teff.

[5] = Teff incubated 2 h with 10^−5 M

## NCCc1ccc(O)c(O)c1 [dopamine, 3,4-dihydroxyphenethylamine]
[1]
  Increase of D5-R transcripts in Teff: 10 fold
  Number of D5-R transcripts in Treg: unchanged
[2]
  Number of D1-R transcripts in Treg or Teff: did not significantly alter
[3]
  IL-2 level secreted by Teff: not affected
  Production of IL-2 by Treg: not detected
[4]; 10^−5 M, 2 h, Treg activated 24 h with anti-CD3 and IL-2
  Proliferation of Teff co-cultured with activated Treg incubated with compound versus Treg not incubated: more than twofold higher
[4]; 10^−5 and 10^−7 M
  Inhibitory effect on Treg activity: reproduced
[4]; 10^−7 M, 2 h
  Effect on Treg suppressive activity: significant effect
[4]; 10^−9 M, 2 h
  Effect on Treg suppressive activity: no significant effect
[4]; 10^−9 M
  Inhibitory effect on Treg activity: slight and not statistically significant
[4]; [5]
  Direct effect on Teff proliferation: did not differ
  Susceptibility of Teff to Treg suppression: did not alter the susceptibility of Teff to Treg suppression
[4]; Treg activated 96 h, 10^−5 M for 2 h at end of activation
  Teff proliferation with treated versus untreated activated Treg: significantly higher
[4]; any of the concentrations tested
  Extent of effect on Treg suppressive activity: only partial
